Assay results taken from a melting point compilation (Tetko et al.; mined from patent text by program, amines drawn as free bases though some values may be those of a salt).

Compared with `COCOc1cc(F)ccc1-c1cc(-c2cccc(NC(=O)CN3CCCCC3)c2)c(C#N)c(NC(=O)c2ccco2)n1`, `O=C(CN1C(=O)c2ccccc2C1=O)Nc1cccc(OC(F)(F)F)c1` is higher in melting point: 140 to 142 °C for the first, 170 °C for the second.

First: CCCc1cc(Cl)c(OC(=S)N(C)C)c(C(C)=O)c1O
Second: CC(=O)NCc1cc(C(C)=O)ccc1Cl
The melting point of the first is higher: 114 to 116 °C for the first, 93.1 to 93.7 °C for the second.

First: CC(C)(C)CC(=O)Nc1ccc2oc3c(c2c1)CCC3
Second: CC(C)CC(=O)Nc1ccc2oc3c(c2c1)CCCCCC3
The melting point of the first is higher: 196 to 197 °C for the first, 154 to 155 °C for the second.

First: CCN(CC)C(=S)SCC(c1cccc2ccccc12)[N+](=O)[O-] (stereo not drawn)
Second: O=C(CC(CSC(=O)c1ccccc1)C(=O)O)c1ccc(Br)cc1 (stereo not drawn)
The melting point of the first is higher: 136 to 138 °C for the first, 133 to 135 °C for the second.

First: O=C(Nc1n[nH]c(=S)s1)N[C@@H](Cc1ccccc1)C(=O)N1CCN(c2ccccc2)CC1
Second: CS(=O)(=O)Nc1nc(CN2CCN(C(c3ccccc3)c3ccccc3)CC2)cs1
The melting point of the first is higher: 210 to 211 °C for the first, 177 to 179 °C for the second.

First: CCC(CC)N(Cc1ccc(C(=O)O)cc1)S(=O)(=O)c1ccc(OC)cc1
Second: COc1ccc(OCC(O)COc2cccc(O)c2C(C)=O)cc1 (stereo not drawn)
The melting point of the first is lower: 86 to 87 °C for the first, 100 to 102 °C for the second.

Compared with `CCCn1c(=O)c2[nH]c(-c3cc(C)n(CC(=O)Nc4ccc(F)cc4)n3)nc2n(CCC)c1=O`, `CC(=O)Nc1ccc(Cc2nc3c(c4c2[nH]c2ccccc24)C(=O)CC(C)(C)C3)cc1` is lower in melting point: 205 to 207 °C for the first, 153 to 154 °C for the second.

Compared with `CCCc1c(OCCCCCCc2cc(C)c(OC)c(OC)c2C)ccc(C(=O)O)c1O`, `CCCCCCCCCCOc1ccc2c(=O)c3cccc(C(=O)O)c3oc2c1CCC(=O)O` is higher in melting point: 109 to 112 °C for the first, over 210 °C for the second.

`S=c1nc2ccccn2c(=S)n1-c1ccccn1` and `CC(=O)c1cnc(-c2ccccc2)nc1-c1ccccc1` cannot be ordered by melting point: 107 to 109 °C for the first, 100 to 108 °C for the second.

First: O=C(CCCOc1cc(-c2ccccc2)ccc1O)NO
Second: Nc1ccccc1-c1cccc(C(=O)O)c1
The melting point of the first is lower: 148 to 152 °C for the first, 170 °C for the second.

Compared with `CCCCCCCCC#CCC#CCC#CCCCC(=O)Nc1ccc(O)cc1`, `O=C(CCCCCBr)Nc1ccc(C(F)(F)F)cc1` is lower in melting point: 121 °C for the first, 96 to 98 °C for the second.

First: c1cnc2c(OCCOc3nccnc3N3CCNCC3)cccc2c1
Second: Cc1oc(-c2ccccc2)nc1CCOc1ccc(N)cn1
The melting point of the first is lower: 98 to 100 °C for the first, 107 to 108 °C for the second.

Compared with `Cc1ccc(OCc2ccccc2)c2cnn(Cc3ccccc3)c12`, `N#Cc1ccc(CCc2cc(Cl)ccc2OCc2ccccc2)cc1` is lower in melting point: 92 to 93 °C for the first, 77 to 79 °C for the second.

First: Cc1c(C)c2c(c(C)c1NC(=O)CCC(F)(F)F)C(c1ccc(C(C)C)cc1)CO2 (stereo not drawn)
Second: Cc1cc2c(c(C)c1NC(=O)NC(C)(C)C)C(c1ccc(C(C)C)cc1)CO2 (single isomer, unassigned; (+))
The melting point of the first is higher: 206 to 207 °C for the first, 205 to 206 °C for the second.

First: C1=C(c2ccc3ccccc3c2)CCN(Cc2n[nH]c3ccccc23)C1
Second: O=C(NN1CCN(CCc2c[nH]c3ccccc23)CC1)c1ccccc1
The melting point of the first is lower: 225 to 227 °C for the first, 227 to 229 °C for the second.

First: COc1ccc(CNC(=O)Nc2ccc(CN3C(=O)[C@H]4CCC[C@H]4N(C(=O)CCl)c4ccccc43)cc2)cc1 (relative stereo)
Second: O=C(O)CCCNC(=O)c1ccc(NC(=O)c2ccccc2O)cc1
The melting point of the first is higher: 225 to 226 °C for the first, 211 to 213 °C for the second.

`NC(Cc1cc(Cl)ccc1CCP(=O)(O)O)C(=O)O` (stereo not drawn) and `N#Cc1cc(CO)nc(C(=O)Nc2cccc(Cl)c2)c1` cannot be ordered by melting point: over 160 °C for the first, 167 °C for the second.

Compared with `Cc1ccc(S(=O)(=O)OCC2Cc3cccc(-c4cc(C(F)(F)F)cc(C(F)(F)F)c4)c3O2)cc1` (stereo not drawn), `Oc1ccc2c(-c3ccc4c(O)cccc4c3)noc2c1` is higher in melting point: 100 to 105 °C for the first, 275 to 277 °C for the second.

Compared with `Cc1cc2cc(C#CCO)ccc2o1`, `CCOC(=O)c1nc2cc(-c3ccccc3)sc2nc1N` is higher in melting point: 102 °C for the first, 173 to 175 °C for the second.

First: NC(=O)c1cccc(Nc2ccncc2)c1
Second: Nc1cccc(C(=O)NCCCn2ccnc2)c1
The melting point of the first is higher: 201 to 203 °C for the first, 88 to 90 °C for the second.

Compared with `CCNC(=O)N1C(=O)C2(CCCCC2)NC12CCCCC2`, `O=C(O)C1(CC2CCCC2)CC1` is lower in melting point: 185 to 188 °C for the first, 42 to 45 °C for the second.

Compared with `O=C1NCC(C(F)(F)F)C(=O)N1c1ccccc1` (stereo not drawn), `N#Cc1ccc(-n2c(=O)cc(C(F)(F)F)n(N)c2=O)cc1O` is higher in melting point: 215 to 216 °C for the first, over 230 °C for the second.

Compared with `O=C1COc2ccc(C3=Nc4ccccc4SC3)cc2N1`, `O=C1C(=Cc2ccc(Cl)cc2)Cc2ccccc21` is lower in melting point: 280 to 281 °C for the first, 174 to 179 °C for the second.

First: COc1ncc(C=C2SC(=S)N(CC(=O)O)C2=O)cc1-c1cc2c(cc1C)C(C)(C)CCC2(C)C
Second: C/C(=C\c1ccc(OCCS(C)=O)cc1)c1ccc2c(c1)C(C)(C)CCC2(C)C (stereo not drawn)
The melting point of the first is higher: 253 to 255 °C for the first, 134 to 136 °C for the second.

First: Cn1nc2ccccc2c1C(=O)NC1CCN(CCc2ccc(F)cc2)C1 (stereo not drawn)
Second: CCNC(=O)N1CCn2nc(-c3ccc(F)cc3)c(-c3ccncc3)c2N1
The melting point of the first is lower: 117 to 119 °C for the first, 235 to 240 °C for the second.

Compared with `Cc1c(O)ccc(C(=O)c2ccccc2F)c1C`, `CCOC(=O)c1nn(-c2ccccc2Br)c(=O)c(C#N)c1C` is lower in melting point: 131 to 132 °C for the first, 106 to 108 °C for the second.

First: CC(C(=O)N(C)C)n1cc(Cl)c(-c2ccccc2)n1 (stereo not drawn)
Second: O=C(O)COc1cc2cc(-c3ccccc3)sc2c(Cl)c1Cl
The melting point of the first is lower: 73.5 to 75 °C for the first, 209 to 211 °C for the second.

First: CCCCCCCCCCCCCCCCCCSc1ccc(C)cc1
Second: CCCCCCCCCCCCOC(=O)NCCC(=O)NC(Cc1c[nH]cn1)C(=O)O (stereo not drawn)
The melting point of the first is lower: 54 to 55 °C for the first, 168 to 172 °C for the second.

First: COc1ccc(-c2c3cccc(C(F)(F)F)c3nn2CC2CCCCC2)c(OC)c1
Second: COc1ccc(-c2coc3cc(OCC(O)CNC4CCCCC4)ccc3c2=O)cc1OC (stereo not drawn)
The melting point of the first is higher: 156 to 157 °C for the first, 70 to 71 °C for the second.

First: CCOC1=NS(=O)(=O)c2cc(NC(=O)CC)ccc21
Second: CCO/C=C/C(=O)Nc1ccc(Br)cc1C
The melting point of the first is higher: 188 to 192 °C for the first, 163 to 164 °C for the second.

First: CCC1(CC)CN(C(C)(C)C)C(=O)C(CC)(CC)N1OCc1ccccc1
Second: Cn1ccc(=O)c(OCc2ccccc2)c1C(=O)c1cccnc1
The melting point of the first is lower: 83 to 85 °C for the first, 210 to 216 °C for the second.

First: CCC[C@H]1CC[C@H](C(=O)O)CC1
Second: N#Cc1ccccc1OC(=O)CCC1CCN(C(=N)N)CC1
The melting point of the first is lower: 97 to 98 °C for the first, 160 to 162 °C for the second.

First: Cc1oncc1C(=O)N1CCC(O)CC1
Second: CC1(C)CCC(O)(CCN2C(=O)CSC2CCCc2ccc(C(=O)O)cc2)CC1 (stereo not drawn)
The melting point of the first is lower: 70.5 to 72.5 °C for the first, 142 to 143 °C for the second.

Compared with `COc1ccc(-c2nc(C)c(C)nc2-c2ccc(OC)cc2)cc1`, `COc1ccc(C(C)N(C)CCCCOc2ccc(S(=O)(=O)c3c(C(C)C)cn4ccccc34)cc2)cc1OC` (stereo not drawn) is lower in melting point: 106 to 108 °C for the first, 84 to 86 °C for the second.

First: COc1cccc(CCC(=O)c2c[nH]cn2)c1OC
Second: COc1ccc(-c2c(C(=O)O)[nH]c3cc(OC)c(OC)cc23)cc1OC
The melting point of the first is lower: 120 to 125 °C for the first, 198 to 200 °C for the second.

First: Nc1cccc(-c2ccc(OCC3CNC3)c3ccccc23)n1
Second: c1ccc(-c2nc3c([nH]2)Cc2ccccc2-3)cc1
The melting point of the first is lower: 88 to 110 °C for the first, 141 to 143 °C for the second.

Compared with `O=C1C(=O)N(C(c2ccccc2)c2ccccc2)c2cc(F)ccc21`, `O=C1CCCc2nc3ccccc3c(NCc3ccccc3Cl)c21` is lower in melting point: 167 to 169 °C for the first, 150 to 161 °C for the second.

Compared with `COc1cc2c(cc1OC)C(C)Cn1c-2cc(=Nc2c(C)cc(C)cc2C)n(C)c1=O` (stereo not drawn), `COc1ccc2c3c(c4cc(OC)c(OC)cc4c2c1)CC1CCCCN1C3` (stereo not drawn) is higher in melting point: 156 to 157 °C for the first, 193 to 195 °C for the second.

First: COCCN1CCc2ccc(Nc3ncc(Cl)c(Nc4ccc(OC)c5c4C(=O)N(C)C5)n3)cc2CC1
Second: COCc1ncc(-n2nc(C)cc2C)nc1Nc1ccc(Cl)cc1
The melting point of the first is higher: 206 to 207 °C for the first, 105 to 108 °C for the second.

Compared with `CCOC(=O)C(C)(C)OC(=O)c1cc(-n2c(=O)cc(C(F)(F)C(F)(F)F)[nH]c2=O)ccc1Cl`, `N#Cc1cc(Br)c(OC(=O)OCOC(=O)c2ccc(Oc3ccc(C(F)(F)F)cc3Cl)cc2[N+](=O)[O-])c(Br)c1` is lower in melting point: 141 to 143 °C for the first, 122 to 123 °C for the second.

Compared with `COCCOc1ccn(O)c(=O)c1`, `CCCCNc1c(C#N)cnc2cc(OCCOC)c(OC)cc12` is lower in melting point: 134 °C for the first, 99 to 102 °C for the second.

First: CC(=O)OC1CC2=CC(=O)C3C4CCC(C(C)CCCC(C)C)C4(C)CCC3C2(C)C(OC(C)=O)C1 (stereo not drawn)
Second: COCOC1CCC2(C)C(=CCC3C4CCC(=O)C4(C)CCC32)C1 (stereo not drawn)
The melting point of the first is lower: 121 to 122 °C for the first, 130 to 132 °C for the second.

Compared with `OC(CN1CCNC1=S)c1cccc(Cl)c1` (stereo not drawn), `Cc1ccc(C2=CCNCC2)nc1` is lower in melting point: 128 °C for the first, 78 to 80 °C for the second.

Compared with `COC(=O)c1ccc2c(c1)CCC(C(N)=O)C2` (stereo not drawn), `NC(=O)Nc1nc2n(n1)Cc1ccccc1-2` is higher in melting point: 162 to 164 °C for the first, 261 to 263 °C for the second.

Compared with `O=C(NCCCC(F)(F)F)c1nc(-c2ccc(Cl)cc2Cl)c(-c2ccc(Cl)cc2)s1`, `O=C(Nc1ccc(-n2nc(C(F)(F)F)cc2C2CC2)cc1)c1ccncc1F` is higher in melting point: 99 to 101 °C for the first, 143 to 146 °C for the second.

First: O=[N+]([O-])CS(=O)(=O)c1ccc(F)cc1F
Second: O=C(CCl)Nc1cc(Br)cc([N+](=O)[O-])c1NC(=O)CCl
The melting point of the first is lower: 74 to 75 °C for the first, 172 to 173 °C for the second.

Compared with `O=C(NCCN1CCCC1)N1CCN(c2ccccc2)CC1`, `CN1CCC2(CC=C(c3cc4ccccc4s3)CC2)CC1` is higher in melting point: 81.5 to 84 °C for the first, 89.7 to 91.2 °C for the second.

`Cc1noc(NS(=O)(=O)c2ccccc2-c2ccc(-c3ncco3)cc2CN2OCC(C)(C)C2=O)c1C` and `COC(=O)c1c(C)nc(C)c(C(=O)OC)c1-c1ccccc1[N+](=O)[O-]` cannot be ordered by melting point: 95 to 100 °C for the first, 99 to 101 °C for the second.

Compared with `CS(=O)c1ccc(CI)cc1` (stereo not drawn), `CC(C)N1C(=O)C2CC(c3ccc(N)cc3)(C2)C1=O` is higher in melting point: 80 to 81 °C for the first, 191 to 201 °C for the second.

First: CC(Cn1ncnn1)n1nnc2cc3c(=O)n(C)nnc3cc2c1=O (stereo not drawn)
Second: CC(=O)Nc1c(C(=O)c2ncccc2C)[nH]c2cc(Cl)ccc12
The melting point of the first is higher: 228 to 230 °C for the first, 173 to 175 °C for the second.

First: N#Cc1ccc(C(=O)NCc2ccc(N3CC(C(=O)O)OC3=O)cc2)cc1 (stereo not drawn)
Second: CCC(OC(C)=O)c1ccc(Cl)c2nc3n(c12)CCCN3c1ccc(OC)nc1C (stereo not drawn)
The melting point of the first is higher: 234 °C for the first, 157 to 159 °C for the second.

`CC(=O)NCCn1nnnc1S` gave a melting point of 138 to 140 °C.
